Target: ALPK1 (Homo sapiens, UniProt Q96QP1)
Assay: IL8 secretion in HEK293 cells (IL8 ELISA) as indicator of ALPK1 activation
Details: for IL8 secretion in HEK293 cells: 4 hours

Chain of ALPK1 (Q96QP1 whole entry): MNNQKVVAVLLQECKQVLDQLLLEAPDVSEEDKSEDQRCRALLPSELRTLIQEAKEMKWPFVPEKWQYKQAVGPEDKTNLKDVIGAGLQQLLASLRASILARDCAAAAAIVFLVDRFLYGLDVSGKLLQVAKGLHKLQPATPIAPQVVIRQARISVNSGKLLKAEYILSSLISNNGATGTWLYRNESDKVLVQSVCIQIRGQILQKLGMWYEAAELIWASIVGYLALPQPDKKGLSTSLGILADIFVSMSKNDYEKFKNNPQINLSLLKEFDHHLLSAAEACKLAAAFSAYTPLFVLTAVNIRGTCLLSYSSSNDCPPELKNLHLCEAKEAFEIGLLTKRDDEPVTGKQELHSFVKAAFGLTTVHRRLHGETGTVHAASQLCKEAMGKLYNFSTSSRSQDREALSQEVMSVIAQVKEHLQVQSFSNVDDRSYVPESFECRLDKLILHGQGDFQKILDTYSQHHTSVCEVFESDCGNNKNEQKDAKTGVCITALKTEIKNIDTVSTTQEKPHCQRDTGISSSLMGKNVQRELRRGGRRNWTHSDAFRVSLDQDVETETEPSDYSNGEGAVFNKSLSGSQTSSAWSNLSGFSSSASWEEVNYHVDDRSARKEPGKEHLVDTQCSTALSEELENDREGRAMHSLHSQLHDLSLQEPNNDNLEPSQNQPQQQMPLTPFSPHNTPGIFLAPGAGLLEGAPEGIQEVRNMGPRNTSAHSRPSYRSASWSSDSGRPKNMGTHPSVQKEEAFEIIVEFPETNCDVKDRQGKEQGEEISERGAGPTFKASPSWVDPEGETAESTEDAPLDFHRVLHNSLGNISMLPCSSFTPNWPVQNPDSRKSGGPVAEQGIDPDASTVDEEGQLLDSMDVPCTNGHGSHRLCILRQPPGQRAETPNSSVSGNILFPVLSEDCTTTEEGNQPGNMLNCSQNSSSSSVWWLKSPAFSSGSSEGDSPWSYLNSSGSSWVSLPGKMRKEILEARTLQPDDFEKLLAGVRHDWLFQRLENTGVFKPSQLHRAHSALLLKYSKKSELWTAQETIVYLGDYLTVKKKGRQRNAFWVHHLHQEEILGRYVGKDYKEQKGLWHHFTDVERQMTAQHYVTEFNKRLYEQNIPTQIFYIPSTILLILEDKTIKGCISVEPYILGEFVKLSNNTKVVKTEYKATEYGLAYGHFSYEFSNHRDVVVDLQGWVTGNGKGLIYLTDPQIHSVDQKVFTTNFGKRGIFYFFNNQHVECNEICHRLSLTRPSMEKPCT

Compound | IL8 secretion in HEK293 cells (with 10% FBS) | IL8 secretion in HEK293 cells (without FBS) | resistance to serum degradation (compare without FBS and with 10% FBS (FIG. 27A and FIG. 27B))
CC(=O)OC[C@H](F)[C@H]1O[C@@H](OP(=O)(O)OP(=O)(O)OC[C@H]2O[C@@H](n3cnc4c(N)ncnc43)[C@H](O)[C@@H]2O)[C@@H](OC(C)=O)[C@@H](OC(C)=O)[C@@H]1OC(C)=O [Compound 3, (2S,3S,4S,5S,6S)-2-((S)-2-acetoxy-1-fluoroethyl)-6-(((((((2R,3S,4R,5R)-5-(6-amino-9H-purin-9-yl)-3,4-dihydroxytetrahydrofuran-2-yl)methoxy)(hydroxy)phosphoryl)oxy)(hydroxy)phosphoryl)oxy)tetrahydro-2H-pyran-3,4,5-triyl triacetate] | activate IL8 secretion | activate IL8 secretion | –
CC(=O)OC[C@H]1O[C@@H](OP(=O)(O)OP(=O)(O)OC[C@H]2O[C@@H](n3cnc4c(N)ncnc43)[C@H](O)[C@@H]2O)[C@@H](OC(C)=O)[C@@H](OC(C)=O)[C@@H]1OC(C)=O [Compound 5, (2R,3R,4S,5S,6S)-2-(acetoxymethyl)-6-(((((((2R,3S,4R,5R)-5-(6-amino-9H-purin-9-yl)-3,4-dihydroxytetrahydrofuran-2-yl)methoxy)(hydroxy)phosphoryl)oxy)(hydroxy)phosphoryl)oxy)tetrahydro-2H-pyran-3,4,5-triyl triacetate] | increased IL8 secretion | increased IL8 secretion | –
CO[C@@H]1[C@H](OC)[C@@H](COP(=O)(O)OP(=O)(O)O[C@@H]2O[C@H]([C@@H](COC(C)=O)OC(C)=O)[C@@H](OC(C)=O)[C@H](OC(C)=O)[C@@H]2OC(C)=O)O[C@H]1n1cnc2c(N)ncnc21 [Compound 13, (2S,3S,4S,5R,6R)-2-(((((((2R,3R,4R,5R)-5-(6-amino-9H-purin-9-yl)-3,4-dimethoxytetrahydrofuran-2-yl)methoxy)(hydroxy)phosphoryl)oxy)(hydroxy)phosphoryl)oxy)-6-((R)-1,2-diacetoxyethyl)tetrahydro-2H-pyran-3,4,5-triyl triacetate] | increased IL8 secretion | increased IL8 secretion | –
COC1C(OC)[C@@H](COP(=O)(O)OP(=O)(O)O[C@@H]2OC([C@H](O)CO)[C@@H](O)C(O)C2O)O[C@H]1n1cnc2c(N)ncnc21 (stereo partly drawn) [Compound 14, Adenosine-2′3′-dimethoxy-5′-(D-glycero-β-D-mannoheptopyranosyl) diphosphate] | increased IL8 secretion | increased IL8 secretion | –
CC(=O)OC[C@@H](OC(C)=O)[C@H]1O[C@@H](OP(=O)(O)OP(O)(=S)OC[C@H]2O[C@@H](n3cnc4c(N)ncnc43)[C@H](O)[C@@H]2O)[C@@H](OC(C)=O)[C@@H](OC(C)=O)[C@@H]1OC(C)=O (stereo partly drawn) [Compound 15, (2S,3S,4S,5R,6R)-2-(((((((2R,3S,4R,5R)-5-(6-amino-9H-purin-9-yl)-3,4-dihydroxytetrahydrofuran-2-yl)methoxy)(hydroxy)phosphorothioyl)oxy)(hydroxy)phosphoryl)oxy)-6-((R)-1,2-diacetoxyethyl)tetrahydro-2H-pyran-3,4,5-triyl triacetate] | activate IL8 secretion | activate IL8 secretion | unexpected resistance to serum degradation
Nc1ncnc2c1ncn2[C@@H]1O[C@H](COP(O)(=S)OP(=O)(O)O[C@@H]2OC([C@H](O)CO)[C@@H](O)C(O)C2O)C(O)C1O (some centres unmarked) [Compound 16] | increased IL8 secretion | increased IL8 secretion | –
CC(=O)OC[C@@H](OC(C)=O)[C@H]1O[C@@H](OP(=O)(O)OP(=O)(O)OC[C@H]2O[C@@H](n3cnc4c(N)ncnc43)[C@H](O)[C@H]2F)[C@@H](OC(C)=O)[C@@H](OC(C)=O)[C@@H]1OC(C)=O [Compound 17, (2S,3S,4S,5R,6R)-2-(((((((2R,3R,4S,5R)-5-(6-amino-9H-purin-9-yl)-3-fluoro-4-hydroxytetrahydrofuran-2-yl)methoxy)(hydroxy)phosphoryl)oxy)(hydroxy)phosphoryl)oxy)-6-((R)-1,2-diacetoxyethyl)tetrahydro-2H-pyran-3,4,5-triyl triacetate] | increased IL8 secretion | increased IL8 secretion | –
CC(=O)OC[C@@H](OC(C)=O)[C@H]1O[C@@H](OP(=O)(O)OP(=O)(O)OC[C@@]2(F)O[C@@H](n3cnc4c(N)ncnc43)[C@@H]3OC(C)(C)O[C@@H]32)[C@@H](OC(C)=O)[C@@H](OC(C)=O)[C@@H]1OC(C)=O [Compound 19, (2S,3S,4S,5R,6R)-2-(((((((3aS,4S,6R,6aR)-6-(6-amino-9H-purin-9-yl)-4-fluoro-2,2-dimethyltetrahydrofuro[3,4-d][1,3]dioxol-4-yl)methoxy)(hydroxy)phosphoryl)oxy)(hydroxy)phosphoryl)oxy)-6-((R)-1,2-diacetoxyethyl)tetrahydro-2H-pyran-3,4,5-triyl triacetate] | activate IL8 secretion | activate IL8 secretion | –
CC(=O)OC[C@@H](OC(C)=O)[C@H]1O[C@@H](OP(=O)(O)OP(=O)(O)OC[C@@]2(F)O[C@@H](n3cnc4c(N)ncnc43)[C@H](O)[C@@H]2O)[C@@H](OC(C)=O)[C@@H](OC(C)=O)[C@@H]1OC(C)=O [Compound 20, (2S,3S,4S,5R,6R)-2-(((((((2S,3S,4R,5R)-5-(6-amino-9H-purin-9-yl)-2-fluoro-3,4-dihydroxytetrahydrofuran-2-yl)methoxy)(hydroxy)phosphoryl)oxy)(hydroxy)phosphoryl)oxy)-6-((R)-1,2-diacetoxyethyl)tetrahydro-2H-pyran-3,4,5-triyl triacetate] | activate IL8 secretion | activate IL8 secretion | –
CC(=O)OC[C@H](OC(C)=O)[C@H]1O[C@@H](OP(=O)(O)OP(=O)(O)OC[C@H]2O[C@@H](n3cnc4c(N)ncnc43)[C@H](O)[C@@H]2O)[C@@H](OC(C)=O)[C@@H](OC(C)=O)[C@@H]1OC(C)=O [Compound 21, (2S,3S,4S,5R,6R)-2-(((((((2R,3S,4R,5R)-5-(6-amino-9H-purin-9-yl)-3,4-dihydroxytetrahydrofuran-2-yl)methoxy)(hydroxy)phosphoryl)oxy)(hydroxy)phosphoryl)oxy)-6-((S)-1,2-diacetoxyethyl)tetrahydro-2H-pyran-3,4,5-triyl triacetate] | increased IL8 secretion | increased IL8 secretion | –
Nc1ncnc2c1ncn2[C@@H]1O[C@H](COP(=O)(O)OP(=O)(O)O[C@@H]2OC([C@@H](O)CO)[C@@H](O)C(O)C2O)C(O)C1O (stereo partly drawn) [Compound 22, Adenosine-5′-(L-glycero-β-D-mannoheptopyranosyl) diphosphate] | increased IL8 secretion | increased IL8 secretion | –
